According to patent US11439670B2, “Akkermansia muciniphila EB-AMDK27 strain and use thereof” (ENTEROBIOME INC., priority 2019, dated 2022):
≈ marks a conversion by molar mass, not a printed value.

Columns and labels:
Type in all cases: cell-based
[1] = tested on: Akkermansia muciniphila ATCC BAA-835; assay: Utilization of carbohydrates, API50CH kit (type strain)
Experimental: (§1) In order to examine the utilization of carbohydrates by the isolated Akkermansia muciniphila strain of the present invention, the strain was cultured using an API50CH kit (Biomerieux, France), and then whether the strain would grow using each carbohydrate was compared with the type strain (ATCC BAA-835).

[2] = tested on: Akkermansia muciniphila EB-AMDK27 strain; assay: Utilization of carbohydrates, API50CH kit (isolated strain)
Experimental: as §1

[3] = tested on: Akkermansia muciniphila EB-AMDK27 strain; assay: Antimicrobial susceptibility, MIC by broth microdilution (CLSI); settings: EBAMDK27STRAIN, read-out: MIC, Test strain EB-AMDK27
[4] = tested on: Bacteroides thetiotaomicron ATCC 29741; assay: Antimicrobial susceptibility, MIC by broth microdilution (CLSI), QC strain; set-up: MIC, QC ATCC 29741: unit not given beside the values; settings: for MIC: Bacteroides, ATCC29741, read-out: MIC, QC ATCC 29741

| Molecule | growth using each carbohydrate, ATCC BAA-835 [1] | growth using each carbohydrate, EB-AMDK27 [2] | MIC [3] [µg/mL] | MIC [4] [µg/mL] | MIC, QC ATCC 29741 ([4]; broth microdilution) |
| --- | --- | --- | --- | --- | --- |
| N#C[C@H](O[C@@H]1O[C@H](CO[C@@H]2O[C@H](CO)[C@@H](O)[C@H](O)[C@H]2O)[C@@H](O)[C@H](O)[C@H]1O)c1ccccc1 [Amygdaline] | − | − |  |  |  |
| OC[C@H]1O[C@@H](Oc2ccc(O)cc2)[C@H](O)[C@@H](O)[C@@H]1O [Arbutine] | − | − |  |  |  |
| O=C(N[C@H](CO)[C@H](O)c1ccc([N+](=O)[O-])cc1)C(Cl)Cl [CHL, Chloramphenicol] |  |  | 4 (≈ 12.4 µM) | 8 (≈ 24.8 µM) |  |
| CCC[C@@H]1C[C@@H](C(=O)N[C@@H]([C@H]2O[C@H](SC)[C@H](O)[C@@H](O)[C@H]2O)[C@H](C)Cl)N(C)C1 [CLI, Clindamycin] |  |  | ≤ 0.125 |  |  |
| CO/N=C(\C(=O)N[C@@H]1C(=O)N2C(C(=O)O)=CCS[C@H]12)c1csc(N)n1 [CTZ, Ceftizoxime] |  |  | 2 (≈ 5.22 µM) | 16 (≈ 41.7 µM) |  |
| OC[C@@H](O)C(O)[C@H](O)CO [D-Arabitol] | − | − |  |  |  |
| OC[C@H]1O[C@@H](O[C@H]2[C@H](O)[C@@H](O)[C@H](O)O[C@@H]2CO)[C@H](O)[C@@H](O)[C@@H]1O [D-Cellobiose] | − | − |  |  |  |
| OC[C@H]1O[C@H](O[C@H]2[C@H](O)[C@@H](O)[C@H](O)O[C@@H]2CO)[C@H](O)[C@@H](O)[C@@H]1O [D-Maltose] | − | − |  |  |  |
| OC[C@H]1O[C@@](CO)(O[C@H]2O[C@H](CO)[C@@H](O)[C@H](O)[C@H]2O)[C@@H](O[C@H]2O[C@H](CO)[C@@H](O)[C@H](O)[C@H]2O)[C@@H]1O [D-Melezitose] | − | − |  |  |  |
| OC[C@H]1O[C@H](OCC2O[C@@H](O)[C@H](O)[C@@H](O)[C@@H]2O)[C@H](O)[C@@H](O)[C@H]1O (stereo partly drawn) [D-Melibiose] | − | − |  |  |  |
| OC[C@H]1O[C@H](OC[C@H]2O[C@H](O[C@]3(CO)O[C@H](CO)[C@@H](O)[C@@H]3O)[C@H](O)[C@@H](O)[C@@H]2O)[C@H](O)[C@@H](O)[C@H]1O [D-Raffinose] | − | − |  |  |  |
| OC[C@H]1O[C@@](CO)(O[C@H]2O[C@H](CO)[C@@H](O)[C@H](O)[C@H]2O)[C@@H](O)[C@@H]1O [D-Saccharose (sucrose), D-Saccharose] | − | − |  |  |  |
| OC[C@H]1O[C@H](O[C@H]2O[C@H](CO)[C@@H](O)[C@H](O)[C@H]2O)[C@H](O)[C@@H](O)[C@@H]1O [D-Trehalose] | − | − |  |  |  |
| OC[C@@H](O)[C@H](O)[C@H](O)[C@@H](O)CO [Dulcitol] | − | − |  |  |  |
| O=c1ccc2cc(O[C@@H]3O[C@H](CO)[C@@H](O)[C@H](O)[C@H]3O)c(O)cc2o1 [Esculine] | − | − |  |  |  |
| CCN1C[C@]2(COC(=O)c3ccccc3N)CC[C@H](OC)[C@]34C5C[C@@H]6[C@@H](OC)C[C@@](O)(C5[C@H]6OC)[C@@](O)(C13)[C@@H](OC)C24 (some centres unmarked) [Inuline] | − | − |  |  |  |
| OC[C@H](O)C(O)[C@@H](O)CO [L-Arabitol] | − | − |  |  |  |
| C[C@@H](O)[C@H]1C(=O)N2C(C(=O)O)=C(S[C@@H]3CN[C@H](C(=O)N(C)C)C3)[C@H](C)[C@H]12 [MEM, Meropenem] |  |  | 0.5 (≈ 1.3 µM) | 0.5 (≈ 1.3 µM) |  |
| Cc1ncc([N+](=O)[O-])n1CCO [MTZ, Metronidazole] |  |  | 0.25 (≈ 1.46 µM) | 2 (≈ 11.7 µM) |  |
| COc1c(N2C[C@@H]3CCCN[C@@H]3C2)c(F)cc2c(=O)c(C(=O)O)cn(C3CC3)c12 [MXF, Moxifloxacin] |  |  | > 32 | 8 (≈ 19.9 µM) |  |
| CO[C@H]1O[C@H](CO)[C@@H](O)[C@H](O)[C@H]1O [Methyl-α D-glucopyranoside] | − | − |  |  |  |
| CO[C@H]1O[C@H](CO)[C@@H](O)[C@H](O)[C@@H]1O [Methyl-α D-mannopyranoside] | − | − |  |  |  |
| O=C([O-])C(=O)C(O)C(O)C(O)CO.[K+] (centres unmarked) [Potassium 2-Ketogluconate] | − | − |  |  |  |
| OCc1ccccc1O[C@@H]1O[C@H](CO)[C@@H](O)[C@H](O)[C@H]1O [Salicine] | − | − |  |  |  |
| CO[C@H]1OC[C@@H](O)[C@H](O)[C@H]1O [α-Methyl-xyloside] | − | − |  |  |  |
| Amidon [Amidon (starch)] | − | − |  |  |  |
| D-Turanose | − | − |  |  |  |
| Glycogene | − | − |  |  |  |
| Piperacillin-Tazobactam [PTZ] |  |  |  |  | 8/4 |
